Measured values: patent US9845291B2, “Estrogen receptor modulators and uses thereof” (Genentech, Inc., priority 2014, dated 2017)

Target: estrogen receptor alpha (ESR1) (Homo sapiens, UniProt P03372)
Experiment: cell-based
Details: for ER-alpha MCF7 HCS Sinf: MCF7 breast cancer cells, 4 hours, plateau of the maximal effect, DMSO and Fulvestrant define 0% and 100% changes in ESR1
Description: Where more than one name is associated with a Formula I compound or intermediate, the chemical structure shall define the compound.
Cell plates were incubated at 37° C., for 4 hours. Fixation and permeabilization were carried out using a Biotek EL406 plate washer and dispenser as follows. […] Samples were incubated 30 minutes. Well contents was aspirated and 50 ul/well of Phosphate Buffered Saline (PBS) containing 0.5% w/v bovine serum albumen, 0.5% v/v Triton X-100 (Antibody Dilution Buffer) was added to each well. Samples were incubated for 30 minutes. Well contents were aspirated and washed 3 times with 100 ul/well of PBS. Immunofluorescence staining of estrogen receptor alpha (ESR1) was carried out using a Biotek EL406 plate washer and dispenser as follows. […] Samples were incubated for 2 hours at room temperature. Samples were washed 4 times with 100 ul/well of PBS. […] Samples were incubated for 2 hours at room temperature. Samples were washed 3 times with 100 ul/well of PBS using a Biotek EL406. Quantitative fluorescence imaging of ESR1 was carried out using a Cellomics Arrayscan V (Thermo). […] Channel 1 (DNA stain) was used to define the nuclear region (Circ). […] Data analysis was carried out using Genedata Screener Software, with DMSO and 5 nM Fulvestrant treated samples being used to define the 0% and 100% changes in ESR1. The “Robust Fit” method was used to define the inflexion point of curve (EC50) and the plateau of the maximal effect (Sin f).

estrogen receptor alpha (ESR1), sequence (P03372 whole entry): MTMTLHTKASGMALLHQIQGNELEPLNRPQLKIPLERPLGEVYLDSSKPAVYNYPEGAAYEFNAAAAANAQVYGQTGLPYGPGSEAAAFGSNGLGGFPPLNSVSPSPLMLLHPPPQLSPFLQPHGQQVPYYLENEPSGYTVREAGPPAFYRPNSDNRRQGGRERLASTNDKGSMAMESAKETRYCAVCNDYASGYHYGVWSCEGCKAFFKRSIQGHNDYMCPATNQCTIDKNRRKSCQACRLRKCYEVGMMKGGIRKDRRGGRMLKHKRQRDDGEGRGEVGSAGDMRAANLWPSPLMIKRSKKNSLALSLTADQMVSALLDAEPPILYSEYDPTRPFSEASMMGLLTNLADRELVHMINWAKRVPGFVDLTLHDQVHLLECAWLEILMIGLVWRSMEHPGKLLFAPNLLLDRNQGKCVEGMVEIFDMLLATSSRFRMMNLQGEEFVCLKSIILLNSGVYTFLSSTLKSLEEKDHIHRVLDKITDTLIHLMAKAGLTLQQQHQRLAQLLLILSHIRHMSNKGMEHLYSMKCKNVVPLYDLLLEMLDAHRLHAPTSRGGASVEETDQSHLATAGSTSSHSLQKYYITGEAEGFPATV

SMILES	EC50	ER-alpha MCF7 HCS Sinf
Cn1c(-c2ccc(O)cc2)c(C(=O)c2ccc(OCCN3CC(CF)C3)cc2)c2ccc(O)cc21 [Example 6, (4-(2-(3-(Fluoromethyl)azetidin-1-yl)ethoxy)phenyl)(6-hydroxy-2-(4-hydroxyphenyl)-1-methyl-1H-indol-3-yl)methanone]	550 nM	−50%
Oc1cccc([C@H]2Sc3cc(O)ccc3O[C@H]2c2ccc(OCCN3CC(CF)C3)cc2)c1 (racemic) [Example 31, 2-(4-(2-(3-(Fluoromethyl)azetidin-1-yl)ethoxy)phenyl)-3-(3-hydroxyphenyl)-2,3-dihydrobenzo[b][1,4]oxathiin-6-ol]	1.1 nM	−97%
O=C(c1ccc(OCCN2CC(CF)C2)cc1)c1c(-c2ccc(F)c(F)c2)sc2cc(O)ccc12 [Example 35, (2-(3,4-difluorophenyl)-6-hydroxybenzo[b]thiophen-3-yl)(4-(2-(3-(fluoromethyl)azetidin-1-yl)ethoxy)phenyl)methanone]	0.55 nM	−98%
Cc1c(-c2ccc(O)cc2)n(Cc2ccc(OC[C@H](C)N3CC[C@@H](CF)C3)cc2)c2ccc(O)cc12 [Example 2, 1-(4-((S)-2-((R)-3-(Fluoromethyl)pyrrolidin-1-yl)propoxy)benzyl)-2-(4-hydroxyphenyl)-3-methyl-1H-indol-5-ol]	1.6 nM	−93%
CS(=O)(=O)c1ccc(-c2ccc3cc(O)ccc3c2C(=O)c2ccc(OCCN3CC[C@@H](CF)C3)cc2)cc1 [Example 67, [4-[2-[(3R)-3-(fluoromethyl)pyrrolidin-1-yl]ethoxy]phenyl]-[6-hydroxy-2-(4-methylsulfonylphenyl)-1-naphthyl]methanone]	0.414 nM	−97.6%
C[C@@H](COc1ccc(C(=O)c2c(-c3ccccc3Cl)noc2-c2ccc(O)cc2)cc1F)N1CC[C@@H](CF)C1 [Example 76, [3-(2-chlorophenyl)-5-(4-hydroxyphenyl)isoxazol-4-yl]-[3-fluoro-4-[(2S)-2-[(3R)-3-(fluoromethyl)pyrrolidin-1-yl]propoxy]phenyl]methanone]	0.091 nM	−101%
Cc1c(-c2ccc(O)cc2Cl)n(Cc2ccc(OC[C@H](C)N3CC[C@@H](CF)C3)cc2)c2ccc(O)cc12 [Example 56, 2-(2-chloro-4-hydroxyphenyl)-1-(4-((S)-2-((R)-3-(fluoromethyl)pyrrolidin-1-yl)propoxy)benzyl)-3-methyl-1H-indol-5-ol]	0.0285 nM	−95.6%
O=C(c1ccc(OCCN2CC[C@@H](CF)C2)c(F)c1)c1c(-c2ccccc2Cl)noc1-c1ccc(O)cc1 [Example 73, [3-(2-chlorophenyl)-5-(4-hydroxyphenyl)isoxazol-4-yl]-[3-fluoro-4-[2-[(3R)-3-(fluoromethyl)pyrrolidin-1-yl]ethoxy]phenyl]methanone]	0.123 nM	−97.6%
Oc1ccc([C@H]2Sc3cc(O)ccc3O[C@H]2c2ccc(OCCN3CC(CF)C3)cc2)cc1 (racemic) [Example 29, 2-(4-(2-(3-(Fluoromethyl)azetidin-1-yl)ethoxy)phenyl)-3-(4-hydroxyphenyl)-2,3-dihydrobenzo[b][1,4]oxathiin-6-ol]	0.55 nM	−101%
Cc1c(-c2ccc(O)cc2)n(Cc2ccc(OCCN3CC(CF)C3)cc2)c2cc(F)c(O)cc12 [Example 49, 6-fluoro-1-(4-(2-(3-(fluoromethyl)azetidin-1-yl)ethoxy)benzyl)-2-(4-hydroxyphenyl)-3-methyl-1H-indol-5-ol]	0.187 nM	−95.6%
Cc1c(-c2ccc(O)c(Cl)c2)n(Cc2ccc(OCCN3CC(CF)C3)cc2)c2ccc(O)cc12 [Example 46, 2-(3-chloro-4-hydroxy-phenyl)-1-[[4-[2-[3-(fluoromethyl)azetidin-1-yl]ethoxy]phenyl]methyl]-3-methyl-indol-5-ol]	0.03 nM	−97.8%
Cc1cc(-c2c(C)c3cc(O)ccc3n2Cc2ccc(OCCN3CC(CF)C3)cc2)ccc1O [Example 41, 1-[[4-[2-[3-(fluoromethyl)azetidin-1-yl]ethoxy]phenyl]methyl]-2-(4-hydroxy-3-methyl-phenyl)-3-methyl-indol-5-ol]	0.0518 nM	−97.8%
Cc1c(-c2ccc(O)cc2)n(Cc2ccc(OCCN3CC(CF)C3)cc2)c2ccccc12 [Example 5, 4-(1-(4-(2-(3-(Fluoromethyl)azetidin-1-yl)ethoxy)benzyl)-3-methyl-1H-indol-2-yl)phenol]	65 nM	−93%
CS(=O)(=O)c1ccc(-c2ccc3c(F)c(O)ccc3c2Oc2ccc(OCCN3CC[C@@H](CF)C3)cc2)cc1 [Example 79, (R)-1-fluoro-5-(4-(2-(3-(fluoromethyl)pyrrolidin-1-yl)ethoxy)phenoxy)-6-(4-(methylsulfonyl)phenyl) naphthalen-2-ol]	0.072 nM	−89.6%
COc1ccc(/C(=C(\c2ccc(OCCN3CC[C@@H](CF)C3)cc2)c2ccc3[nH]nc(F)c3c2)C2CCC2)c(Cl)c1 [Example 26, (R,E)-5-(2-(2-Chloro-4-methoxyphenyl)-2-cyclobutyl-1-(4-(2-(3-(fluoromethyl)pyrrolidin-1-yl)ethoxy)phenyl)vinyl)-3-fluoro-1H-indazole]	0.6 nM	−75%
CC/C(=C(\c1ccc(O)cc1)c1ccc(OCCN2CC[C@@H](CF)C2)cc1)c1ccccc1 [Example 22, (R,Z)-4-(1-(4-(2-(3-(Fluoromethyl)pyrrolidin-1-yl)ethoxy)phenyl)-2-phenylbut-1-en-yl)phenol]	0.58 nM	−83%
Cc1c(-c2ccc(O)cc2Cl)n(Cc2ccc(OCCN3CC(CF)C3)cc2)c2ccc(O)cc12 [Example 47, 2-(2-chloro-4-hydroxy-phenyl)-1-[[4-[2-[3-(fluoromethyl)azetidin-1-yl]ethoxy]phenyl]methyl]-3-methyl-indol-5-ol]	0.115 nM	−94.1%
Oc1ccc(-c2onc(-c3ccccc3Cl)c2-c2ccc(OCCN3CC[C@@H](CF)C3)cc2)cc1 [Example 15, (R)-4-(3-(2-Chlorophenyl)-4-(4-(2-(3-(fluoromethyl)pyrrolidin-1-yl)ethoxy)phenyl)isoxazol-5-yl)phenol]	2.3 nM	−84%
C[C@@H](COc1ccc(Oc2c(-c3ccc(S(C)(=O)=O)cc3)ccc3cc(O)ccc23)cc1)N1CC[C@@H](CF)C1 [Example 66, 5-[4-[(2S)-2-[(3R)-3-(fluoromethyl)pyrrolidin-1-yl]propoxy]phenoxy]-6-(4-methylsulfonylphenyl) naphthalen-2-ol]	0.006 nM	−93.4%
Oc1ccc(-c2snc(-c3ccccc3Cl)c2-c2ccc(OCCN3CC(CF)C3)c(F)c2)cc1 [Example 16, 4-(3-(2-Chloro-phenyl)-4-{3-fluoro-4-[2-(3-fluoromethyl-azetidin-1-yl)-ethoxy]-phenyl}-isothiazol-5-yl)-phenol]	–	−99.2%
Oc1ccc(-c2onc(-c3ccccc3Cl)c2-c2ccc(OCCN3CC(CF)C3)cc2)cc1 [Example 14, 4-(3-(2-Chlorophenyl)-4-(4-(2-(3-(fluoromethyl)azetidin-1-yl)ethoxy)phenyl)isoxazol-5-yl)phenol]	0.21 nM	−99%
Cc1c(-c2ccc(F)cc2)n(Cc2ccc(OCCN3CC(CF)C3)cc2)c2ccc(O)cc12 [Example 3, 1-(4-(2-(3-(Fluoromethyl)azetidin-1-yl)ethoxy)benzyl)-2-(4-fluorophenyl)-3-methyl-1H-indol-5-ol]	5.5 nM	−92%
CC/C(=C(\c1ccccc1)c1ccc(OCCN2CC(CF)C2)cc1)c1ccccc1 [Example 21, (Z)-1-(2-(4-(1,2-Diphenylbut-1-en-1-yl)phenoxy)ethyl)-3-(fluoromethyl)azetidine]	11 nM	−97%
CCN(Cc1ccc(OCCN2CC(CF)C2)cc1)c1cc(OC)ccc1C1CCc2cc(O)ccc2C1 (centres unmarked) [Example 13, 6-(2-(Ethyl(4-(2-(3-(fluoromethyl)azetidin-1-yl)ethoxy)benzyl)amino)-4-methoxyphenyl)-5,6,7,8-tetrahydronaphthalen-2-ol]	7.5 nM	−55%
CS(=O)(=O)c1ccc(-c2ccc3cc(O)ccc3c2Oc2ccc(OCCN3CC[C@@H](CF)C3)cc2)cc1 [Example 8, (R)-5-(4-(2-(3-(Fluoromethyl)pyrrolidin-1-yl)ethoxy)phenoxy)-6-(4-(methylsulfonyl)phenyl)naphthalen-2-ol]	0.27 nM	−95%
Oc1ccc2c(c1)C1=C(c3cc(O)ccc3OCC1)[C@@H](c1ccc(OCCN3CC(CF)C3)cc1)O2 [Example 75, (R)-8-(4-(2-(3-(fluoromethyl)azetidin-1-yl)ethoxy)phenyl)-1,8-dihydro-2H-benzo[2,3]oxepino[4,5-c]chromene-6,12-diol]	3.2 nM	−99.7%
Oc1ccc(C(=C2CCCCC2)c2ccc(OCCN3CC(CF)C3)cc2)cc1 [Example 18, 4-(Cyclohexylidene-{4-[2-(3-fluoromethyl-azetidin-1-yl)-ethoxy]-phenyl}-methyl)-phenol]	12 nM	−89%
